Entries after “also recorded” stand apart in the source; their conditions may differ.
Experiments:
[1] = tested on: ova-sensitized, ova-challenged mice; test: Mouse ovalbumin sensitization model, anti-inflammatory dosing: BALF eosinophils and cytokines; type: in vivo; conditions: for Airway eosinophil infiltration (eosinophils per ml of BALF): dosed orally to day 31, anti-inflammatory dosing paradigm
Protocol: Male BALB/c mice were ordered from Charles River Laboratories (Raleigh, N.C.). The animals were approximately 19 to 21 grams at time of receipt. Upon arrival, the animals were randomized into groups of five males per cage and assigned to a dosing group. Animals were quarantined for 7 days under test conditions. They were observed daily for general health status and ability to adapt to the water bottles. Animals were sensitized on day 0 and 14 of study by an intraperitoneal injection with 20 μg of ovalbumin (ova) and 2.0 mg aluminum hydroxide (alum) which initiates the development of a specific T-helper (Th) cells type 2 resulting in asthmatic animals (denoted as Ova in the figures). One group of animals received an injection of saline to use as control animals (denoted as normal in the figures). […] Aerosol challenge consists of using an Aerogen Aeroneb nebulizer and controller with a particle size of 4-6 μm mass median aerodynamic diameter (MMAD) with a distribution of 400 μl per minute. This aerosol challenge is necessary to target the Th2-driven allergic inflammation in the lower airways.
The anti-inflammatory dosing paradigm (FIG. 1) was utilized to evaluate the anti-inflammatory effects of experimental compounds. […] On day 32 of the experiment, after measurement of airway hyperreactivity, BALF was collected and all animals were anesthetized, bled and euthanized.
Bronchoalveolar lavage fluid (BALF) was collected by infusing 3.0 ml of saline with 10% fetal calf serum into the lungs via the trachea and then withdrawing the fluid. The total amount of cells/ml of BALF fluid was determined via manual cell count on hemocytometer. The BALF was centrifuged, supernatant removed and analyzed for cytokine concentrations as described below, and cell pellet reconstituted in 500 μL of fluid. Cytospin slides were prepared from the cell pellet using 100 μL of fluid and spinning samples for 5 minutes at 5000 rpms in a cytospin centrifuge. Following Hema3 stain, relative percentages of individual leukocytes were determined on a 200 cell count for each sample. The final concentration of individual leukocyte cell types per ml of BALF was determined by multiplication of the relative percentage of individual leukocytes with the total amount of cells/ml of BALF fluid.
The concentrations of cytokines in the BALF samples were determined using commercially available Bio-plex kits (Bio-Rad) for the detection of mouse IL-5, IL-13, and Eotaxin. The analysis of cytokine levels was measured using the Bio-Plex 200 (Bio-Rad) system according to the manufacturer's instructions.

[2] = tested on: ova-sensitized, ova-challenged mice; test: Prevention of airway hyperreactivity (Penh, methacholine) in ovalbumin-sensitized mice; type: in vivo, mouse; conditions: for airway hyperreactivity to metacholine: oral 15 μMol/kg once a day during days 27 to 31, tested Day 32
Text: Airway hyperreactivity is a downstream physiologic effect of inflammation in the mouse ovalbumin sensitization model. The objective of the experiment was to answer whether the decrease in inflammation due to ROCK inhibitor anti-inflammatory dosing results in the prevention of downstream physiological consequences as measured by Penh. […] The anti-inflammatory dosing paradigm consists of dosing the animals once a day starting on day 27 and finishing on either day 30 or 31 (1 hr prior to the aerosolized ovalbumin challenges on days 28 to 30) but not on day 32 when hyperreactivity evaluation occurs. […] Exposure to the methacholine doses consisted of a 3 minute period during which a nebulizer was aerosolizing the methacholine and an additional 3 minute period following the cessation of nebulization. […] Enhanced pause (Penh), a unitless index of airway hyperreactivity, is derived from the expiratory side of the respiratory waveform measured via the plethysmograph and is used as an indirect measure of airway resistance and hyperreactivity. […] Following the methacholine dose response, BALF was collected and all animals were anesthetized, bled and euthanized. […] The Penh value at each of the dose levels of methacholine represents the 6-minute average response. Change from baseline (CFB) in Penh was calculated at each methacholine dose and the area under the curve (AUC) for these CFB values was calculated using the trapezoidal rule. This same approach was applied for each mouse across multiple experiments. […] Data from equal experimental conditions across experiments performed on different days were pooled for statistical analysis and data reporting. […] A random intercept for each experiment was assumed to account for possible similarities of the results obtained from a given experiment (i.e., as a “blocking effect”). […] For FIG. 7, linear AUC values from compound treated mice were reported as a percent of linear AUC values from vehicle-treated ovalbumin-sensitized/ovalbumin-challenged (asthmatic) mice. […]

murine eosinophils = test: Murine eosinophil chemotaxis (eotaxin); type: cell-based, mouse; conditions: 10 nM eotaxin challenge
Protocol: These assays are in vitro assays of eosinophil chemotaxis that can be used to evaluate the ability of Rho Kinase inhibitor compounds of Formula I or II to inhibit the migration of eosinophils, an immunomodulatory cell involved in inflammation. Compounds with activity in this assay can be utilized to treat disease associated with an inflammatory response. Mouse Eosinophil Isolation: Bronchoalveolar lavage was collected from ovalbumin sensitized and challenged mice in a volume of 2.5 mL lavage buffer. The lavage buffer was 0.9% saline with 10% fetal bovine serum. The pooled lavages were maintained on ice until use. […] In Vitro Chemotaxis: […]

human eosinophils = test: Human eosinophil chemotaxis (eotaxin); type: cell-based; conditions: 1 nM eotaxin challenge
Text: These assays are in vitro assays of eosinophil chemotaxis that can be used to evaluate the ability of Rho Kinase inhibitor compounds of Formula I or II to inhibit the migration of eosinophils, an immunomodulatory cell involved in inflammation. Compounds with activity in this assay can be utilized to treat disease associated with an inflammatory response. Human Eosinophil Isolation: Peripheral blood from healthy human volunteers was collected and the PMNs separated via Ficoll-paque density centrifugation followed by hypotonic lysis of the red blood cells. Subsequently, the human eosinophils were isolated from the cell suspension via StemCell Technologies Human Eosinophil Enrichment kit (Cat. No 19256) according to the manufacturer's recommendations. Briefly, unwanted cells were specifically labeled with dextran-coated magnetic nanoparticles using bispecific Tetrameric Antibody Complexes (TAC) directed against cell surface antigens on human blood cells: […] The unwanted cells are then separated from the unlabelled eosinophils using the EasySep® magnetic isolation procedure. In Vitro Chemotaxis: […]

LPS-challenged mice = test: LPS-induced neutrophilia and cytokine production assay; type: in vivo, mouse; conditions: for IL-1β levels in BALF: intratracheal administration, LPS-challenged mice
Protocol: This assay is an in vivo assay of neutrophil accumulation and cytokine production that can be used to evaluate the activity of Rho Kinase inhibitor compounds of Formula I or II as anti-inflammatory agents in a whole animal model.
Male BALB/c mice, approximately 19 to 21 grams, were ordered from Charles River Laboratories (Raleigh, N.C.). All animals were challenged with aerosolized LPS (10 μg/ml) for 25 minutes on study day 0. LPS aerosol was generated using an Aerogen Aeroneb nebulizer and controller providing a flow of 400 μl/min and a particle size of 2-4 μm MMAD. Rolipram was administered i.p at 20 mg/kg. […] Four hours following LPS challenge, BALF was collected using a total of 3 ml of 0.9% sodium chloride containing 10% fetal calf serum. Total cell counts were determined using the Coulter Counter. For differential evaluations, BALF was centrifuged and cytospin slides prepared and stained with Hema3 stain. Manual leukocyte counts were then completed on 200 cells. The final concentration of individual leukocyte cell types per ml of BALF was determined by multiplication of the relative percentage of individual leukocytes with the total amount of cells/ml of BALF fluid. The concentration of IL-1β in the BALF samples was determined using commercially available Bio-plex kits (Bio-Rad). The analysis of cytokine levels was measured using the Bio-Plex 200 (Bio-Rad) system according to the manufacturer's instructions.

[3] = Rat oral pharmacokinetics (plasma); type: in vivo; conditions: 20-30 μmol/kg, mean n = 3
Protocol: Plasma (EDTA K2 anticoagulant) was collected from male, cannulated, CD Sprague Dawley rats to determine the pharmacokinetics of formulations containing compound inhibitors of Rho kinase. Each animal was dosed orally with a 4 ml/kg solution or suspension of each test compound in 10 mM acetate buffered saline, pH 4.5 at a final concentration range of 20-30 μmol/kg. Blood was collected at 0.25, 0.5, 1, 2, 4, 6, 8, and 24 hours. Plasma samples were assayed for the concentration of the test compound using an on-line, solid phase extraction LC/MS/MS analysis system.
Samples were analyzed on a QSTAR Elite, hybrid quadrupole time-of-flight mass spectrometer (Applied Biosystems, Framingham, Mass.) coupled with a Symbiosis Pharma integrated, on-line SPE-HPLC system (Spark Holland Inc., Plainsboro, N.J.). Analyst QS 2.0 software was used for instrument control, data acquisition and processing. […] Mobile Phase A consisted of 0.1% ammonium hydroxide in water and Mobile Phase B consisted of 0.1% formic acid in acetonitrile. Pharmacokinetic analyses were performed using WinNonlin software version 5.2 (Pharsight Corporation, Mountain View, Calif.).
As determined from the plasma concentration versus time curves, the time to peak and peak exposure are represented by the values Tmax and Cmax, respectively. The AUC values (nM*hr) shown were calculated as the areas under the plasma concentration versus time curves from time zero through the time of the last observable value and represent the total exposure of the compound over the course of the study. Half-life values or the amount of time required for the plasma levels of the compound to decline to half the initial value are represented as t½.

[4] = tested on: LPS-stimulated human monocytes; test: Human monocyte cytokine secretion assay (LPS); type: cell-based; conditions: range over the three cytokines and both compounds, read-out: potencies for reducing secretion of IL-1β, TNF-α and IL-9
Protocol: Peripheral blood from healthy human volunteers was collected and the monocytes isolated via Ficoll-paque density centrifugation. […] The cells were allowed to pre-incubate with test compound at the indicated concentration for 30 minutes (37° C., 5% CO2, humidified air); after which the supernatant was removed and media containing compound and 1 ng/mL LPS was added. Cells were allowed to incubate with compounds and LPS for 4 hours at 37° C. after which the supernatant was removed and stored at −80° C. Cytokine concentrations in the supernatant were determined using commercially available Bio-Rad Bio-plex™ kits according the manufacturer's instructions.

ERK2 = molecular target: T1, ERK2 (Homo sapiens, UniProt P28482); test: Kinase panel screen (KinaseProfiler), ERK2; type: biochemical; conditions: 10 μM ATP
T1 construct: purchased Upstate, Millipore Bioscience Division (KinaseProfiler service)
Protocol: Compounds of Formulae I and II were examined for activity against a selected panel of kinases using the KinaseProfiler™ enzyme profiling services (Upstate, Millipore Bioscience Division). Percent kinase activity at 10 μM and 1 μM test compound and 10 μM ATP was determined against 40 wild-type recombinant human kinases according to Upstate's standard protocol: ASK1, BTK, CSK, c-RAF, GCK, GSK3β, IKKα, IKKβ, IRAK1, IRAK4, JNK1α1, JNK2α2, JNK3, ERK1, ERK2, MAPKAP-K2, MAPKAP-K3, MEK1, MKK4, MKK6, MKK7β, Mnk2, MSK1, PAK3, PDK1, PRAK, ROCK1, Rsk2, SAPK2a, SAPK2b, SAPK3, SAPK4, SRPK1, SRPK2, Syk, TAK1, TBK1, PI3-Kβ, PI3-Kγ, PI3-Kδ.

[5] = 15 μmol/kg/oral on days 27 to 31

T1 sequence (P28482 whole entry): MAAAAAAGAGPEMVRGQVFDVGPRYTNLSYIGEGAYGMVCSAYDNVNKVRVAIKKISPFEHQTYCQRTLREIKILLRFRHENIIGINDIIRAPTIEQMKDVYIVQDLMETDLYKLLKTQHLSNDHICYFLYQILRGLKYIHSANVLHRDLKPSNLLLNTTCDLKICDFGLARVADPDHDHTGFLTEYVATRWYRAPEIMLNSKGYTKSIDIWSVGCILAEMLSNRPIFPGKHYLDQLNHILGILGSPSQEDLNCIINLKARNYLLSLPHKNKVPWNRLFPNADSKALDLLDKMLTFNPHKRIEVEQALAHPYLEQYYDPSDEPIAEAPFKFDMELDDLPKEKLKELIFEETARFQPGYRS

In the case of `CS(=O)(=O)Nc1cccc(CN2CC[C@@H](Nc3cccc4cnccc34)C2)c1` [Compound 2.038, (R)-N-(3-((3-(isoquinolin-5-ylamino)pyrrolidin-1-yl)methyl)phenyl)methanesulfonamide], the “concentration of Eotaxin in BALF” value [1, 5] is reported as “reduced levels”, the “concentration of IL-5 in BALF” value [1, 5] is reported as “reduced levels” and the “concentration of IL-13 in BALF” value [1, 5] is reported as “reduced levels”. For the same molecule, the “Airway eosinophil infiltration (eosinophils per ml of BALF)” value [1] was “reduced”, the “airway hyperreactivity to metacholine” value [2] was “prevention of airway hyperreactivity” and the “murine eosinophil chemotactic response” value (murine eosinophils) was “inhibited”. For the same molecule, the “human eosinophil chemotactic response” value (human eosinophils) was “inhibited”.

In the case of `CS(=O)(=O)Nc1cccc(CN2CCC[C@H](Nc3ccc4[nH]ncc4c3)C2)c1` [Compound 1.091, (S)-N-(3-((3-(1H-indazol-5-ylamino)piperidin-1-yl)methyl)phenyl)methanesulfonamide], the “eosinophils in BALF” value ([1]; dosed i.t. to day 30, anti-inflammatory dosing paradigm) is reported as “reduction of eosinophils”, the airway hyperreactivity ([2]; intratracheal once a day during days 27 to 30) is reported as “prevention of airway hyperreactivity” and the “IL-1β levels in BALF” value (LPS-challenged mice) is reported as “reduction in IL-1β; also recorded: reduction of IL-1β levels”. For the same molecule, the “LPS-induced pulmonary neutrophilia influx” value (LPS-challenged mice; intratracheal dosing one hour prior to LPS challenge) was “significant reduction; also recorded: dose-dependent inhibition”, the “AUC (0-last)” value [3] was “BLQ” and the Cmax [3] was “BLQ”. The Tmax [3] was “BLQ” and the t½ [3] was “BLQ”.

In the case of `NC(=O)Cn1ccc2cc(CN3CC[C@@H](Nc4cccc5cnccc45)C3)ccc21` [Compound 2.059, (R)-2-(5-((3-(isoquinolin-5-ylamino)pyrrolidin-1-yl)methyl)-1H-indol-1-yl)acetamide], the IC50 [4] is reported as 170 to 1000 nM, the “IL-1β levels in BALF” value (LPS-challenged mice) is reported as “reduction in IL-1β; also recorded: reduction of IL-1β levels” and the “Percent inhibition ERK2” value (ERK2; 1 μM test compound) is reported as 56%.

In the case of `NC(=O)Cn1ccc2cc(CN3CCC[C@@H](Nc4ccc5[nH]ncc5c4)C3)ccc21` [Compound 1.162, (R)-2-(5-((3-(1H-indazol-5-ylamino)piperidin-1-yl)methyl)-1H-indol-1-yl)acetamide], the activity at 1 µM (ERK2; 1 μM test compound, read-out: Percent inhibition ERK2) is reported as 89% and the activity at 10 µM (ERK2; 10 μM test compound, read-out: Percent inhibition ERK2) is reported as 60%.

In the case of `c1cc2cc(CN3CCC[C@@H](Nc4ccc5[nH]ncc5c4)C3)ccc2o1` [Compound 1.131, (R)-N-(1-(benzofuran-5-ylmethyl)piperidin-3-yl)-1H-indazol-5-amine], the “Airway eosinophil infiltration (eosinophils per ml of BALF)” value [1] is reported as “reduced” and the “airway hyperreactivity to metacholine” value [2] is reported as “prevention of airway hyperreactivity”.

`OCCn1ccc2cc(CN3CC[C@@H](Nc4cccc5cnccc45)C3)ccc21` [Compound 2.066, (R)-2-(5-((3-(isoquinolin-5-ylamino)pyrrolidin-1-yl)methyl)-1H-indol-1-yl)ethanol] gave an IC50 [4] of 170 to 1000 nM.

— patent publication US8207195B2, “Method for treating neurological and neuropathic diseases using rho kinase inhibitor compounds” (priority 2008, dated 2012)
